Where two headings read alike, the source gives them in different places.
How the values were obtained:
[1] = Absorption and fluorescence properties in water; assay type: physicochemical
Experimental: To determine the wavelength of light, at which 1,1-dimethyl-2-[(E)-2-phenylethenyl]-1H-benzo[e]indole derivatives should be irradiated for the investigation of their photodynamic activity, the absorption and fluorescence properties thereof were measured in water. The excitation wavelength λex was set to 380 nm. Based on the results an in-house constructed LED based light source specifically designed for the irradiation of 96-well microplates and Petri dishes (Tomecka et al., CZ302829B6, 2006) was chosen, with a maximal wavelength emission of 414 nm and light intensity set to 20 mW/cm^2.

[2] = tested on: G361 cells (human skin melanoma); assay: MTT cell viability assay with photodynamic treatment; assay type: cell-based
Experimental: (§1) For photodynamic treatments, G361 cells (human skin melanoma) were cultivated in DMEM medium without phenol red supplemented with 10% fetal bovine serum, 100 U/mL penicillin, 100 μg/mL streptomycin, 2 mM glutamine, at 37° C. in 5% CO2 atmosphere. Cells were treated with test compounds and after 4 h were irradiated (the maximal wavelength emission of 414 nm and different total doses up to 10 J/cm^2). Further cultivation lasted for subsequent 16, 24 or 72 h.
Cell viability (EC50) was determined using the MTT (Sigma-Aldrich) assay in 96-well microplates. Cells were seeded, next day treated with test compounds for 4 h and subsequently irradiated (the maximal wavelength emission of 414 nm and total dose of 2.5 and 10 J/cm^2). After irradiation, the cells were incubated for further 72 h and then the MTT solution was added. Cells were incubated for another 4 h at 37° C. and then the 0.1% SDS was added to the wells to solubilize the violet formazan crystals. The measurement of absorbance was carried out on reader Tecan Infinite M200Pro at 570 nm. Dark viability was measured in parallel under the same conditions without irradiation.

G361 cells [3] = assay: Flow cytometric detection of cell death (sub-G1 populations); assay type: cell-based, human; details: for number of cells in sub-G1 population: G361 cells
Experimental: as §1
Asynchronous cells were seeded and, after a pre-incubation period, treated with compound 3g for 4 h, irradiated and after further 24 h of incubation, samples were fixed and stained with propidium iodide. DNA content was analyzed by flow cytometry using a 488 nm laser (BD FACS Verse with software BD FACSuite™, version 1.0.6.) and cell cycle distribution was analyzed using ModFit LT (Verity Software House).

caspases 3 and 7 = assay: Caspase-3/7 assay; assay type: cell-based, human; details: G361 cells; 1.1 μM+10 J/cm^2
Experimental: The cell lysates were incubated for 4 h with 100 μM Ac-DEVD-AMC (the substrate of caspases 3 and 7) in the assay buffer (25 mM PIPES, 2 mM EGTA, 2 mM MgCl2, 5 mM DTT, pH 7.3). The fluorescence of the product was measured using a Fluoroskan Ascent microplate reader (Labsystems) at 355/460 nm (excitation/emission).
To confirm apoptosis as a mechanism of cell death, activity of pro-apoptotic caspases 3 and 7, which are involved in mediating cell death signalling transduction, was quantified upon treatment with compound 3g and light irradiation (FIG. 1).

G361 cells [4] = assay: DNA damage and apoptotic cell death by immunoblotting analysis; assay type: cell-based, human; details: 24 h
Experimental: To confirm DNA damage caused by a combination of compound 3g and irradiation in G361 cells, phosphorylation of histone H2A.X at Ser-139 (γH2A.X), which is a well-accepted marker of DNA damage, was evaluated using immunoblotting analysis (FIG. 2). The cells were treated with different doses (0.1, 0.3 or 1.1 μM) of compound 3g for 4 h, then either kept in dark or exposed to light with a total irradiation dose of 10 J/cm^2 and cultivated for subsequent 24 h. After this period, the cells were harvested and analyzed by immunoblotting.
The cell lysates were prepared in RIPA buffer. Equal protein amounts were loaded and separated on SDS-polyacrylamide gels, electroblotted onto nitrocellulose membranes and after blocking, overnight incubation with specific primary antibodies and incubation with peroxidase-conjugated secondary antibodies, the peroxidase activity was detected with SuperSignal West Pico reagents (Thermo Scientific) using a CCD camera LAS-4000 (Fujifilm). All primary antibodies were diluted in TBS containing 4% BSA and 0.1% Tween 20. The specific antibodies were purchased from Cell Signaling (anti-PARP-1, clone 46D11; anti-caspase 7; HRP-linked secondary antibodies), Santa Cruz Biotechnology (anti-β-actin, clone C4), Millipore (anti-phospho-histone H2A.X, Ser139, clone JBW301).
The cleavage of PARP-1, an enzyme involved in DNA repair, which gets cut and inactivated by caspases during apoptotic cell death, was also apparent when combining said concentration and irradiation dose. […] It confirms that the above observation is a consequence of a photodynamic effect.

G361 cells [5] = assay: Evaluation of cellular viability by microscopy (propidium iodide staining); assay type: cell-based, human; details: 1.1 μM+10 J/cm^2, 16 h after irradiation
Experimental: G361 cells were treated with compound 3g, 4 h later irradiated with 10 J/cm^2 and further cultivated for 16 h. Control cells were treated with the same compound without irradiation. After the incubation period, cells were stained with propidium iodide (final concentration 10 μg/mL) to evaluate their viability by fluorescence microscopy. In parallel, the morphology of treated cells was evaluated by light microscopy. Experiment clearly confirmed the ability of compound 3g to affect cellular viability after light irradiation in dose-dependent manner as shown by positive propidium iodide staining (>95% of analyzed cells at 1.1 μM of compound 3g+10 J/cm^2) as well as significant morphological changes reflecting ongoing cellular death (FIG. 3).

Stokes shift [1]: 102 nm | λabs [1]: 433 nm | λem ([1]; excitation wavelength 380 nm): 535 nm | EC50 ([2]; G-361, G361 cells, light energy: Dark (Table 4), read-out: EC50 ± SD): 7.6 ± 0.9 µM | EC50 ([2]; G-361, dark kept G361 cells, 4 h treatment, further 72 h, MTT, read-out: G361 - EC50, Dark): 6.2 µM | EC50 ([2]; G-361, light or radiation study, G361 cells, light energy 2.5 J/cm^2 (Table 4), read-out: EC50 ± SD): 1.2 ± 0.3 µM | EC50 ([2]; G-361, light or radiation study, G361 cells, light energy 10 J/cm^2 (Table 4), read-out: EC50 ± SD): 0.7 ± 0.1 µM | EC50 ([2]; G-361, light or radiation study, light irradiated (414 nm, 10 J/cm^2) G361 cells, 4 h treatment, irradiation, further 72 h, MTT, read-out: G361 - EC50, 10 J/cm^2): 0.6 µM
Compound: CC1(C)C(/C=C/c2ccc(C#N)c(F)c2)=Nc2ccc3ccccc3c21 [Compound 3g, 4-[(E)-2-(1,1-Dimethyl-1H-benzo[e]indol-2-yl)ethenyl]-2-fluorobenzonitrile]
number of cells in sub-G1 population (G361 cells [3]; 0.3 μM, 1.1 J/cm^2, 24 h after irradiation): 0 (number of cells in sub-G1 population <10% (0)) | number of cells in sub-G1 population (G361 cells [3]; 0.3 μM, 3.3 J/cm^2, 24 h after irradiation): 0 (number of cells in sub-G1 population <10% (0)) | number of cells in sub-G1 population (G361 cells [3]; 0.3 μM, Dark, 24 h): 0 (number of cells in sub-G1 population <10% (0)) | number of cells in sub-G1 population (G361 cells [3]; 1.1 μM, 1.1 J/cm^2, 24 h after irradiation): 0 (number of cells in sub-G1 population <10% (0)) | number of cells in sub-G1 population (G361 cells [3]; 1.1 μM, 3.3 J/cm^2, 24 h after irradiation): + (10-50% (+)) | number of cells in sub-G1 population (G361 cells [3]; 1.1 μM, Dark, 24 h): 0 (number of cells in sub-G1 population <10% (0)) | number of cells in sub-G1 population (G361 cells [3]; 3.3 μM, 1.1 J/cm^2, 24 h after irradiation): + (10-50% (+)) | number of cells in sub-G1 population (G361 cells [3]; 3.3 μM, 3.3 J/cm^2, 24 h after irradiation): ++ (>50% (++)) | number of cells in sub-G1 population (G361 cells [3]; 3.3 μM, Dark, 24 h): 0 (number of cells in sub-G1 population <10% (0)) | sub-diploid (sub-G1) populations (G361 cells [3]; treated and irradiated G361 cells, concentration and light irradiation dependent): increase | capacity to induce apoptosis (caspase 3/7 activity) (caspases 3 and 7): clearly apparent | H2A.X phosphorylation (Ser-139, γH2A.X) (G361 cells [4]; G361 cells kept in the dark, 0.1, 0.3 or 1.1 μM): did not show any H2A.X phosphorylation | H2A.X phosphorylation (Ser-139, γH2A.X) level (G361 cells [4]; G361 cells, 1.1 μM+10 J/cm^2): massive increase | cleavage of PARP-1 (G361 cells [4]; G361 cells, 1.1 μM+10 J/cm^2): apparent | caspase 7 cleavage (G361 cells [4]; G361 cells, treated and irradiated (10 J/cm^2)): cleavage activation of caspase 7 | positive propidium iodide staining (G361 cells [5]): > 95 % of analyzed cells

— patent publication US12503437B2, “1,1-dimethyl-2-[(E)-2-phenylethenyl]-1H-benzo[e]indole derivatives and uses thereof” (Kaunas University of Technology, priority 2023, dated 2025)
